Consider 24 molecules from patent publication US20250195521A1 (Revolution Medicines, Inc., priority 2020, published 2025).

For this assay, the system named is K-Ras G12C (NCI-H358 cells). Description: Potency assay: pERK in NCI-H358 cells. Particulars: Homo sapiens, read-out: pERK EC50 (H358 KRAS G12C). It counts as cell-based, human. Here is the method: The purpose of this assay is to measure the ability of test compounds to inhibit K-Ras in cells. […] This procedure measures a decrease in cellular pERK in response to test compounds. The procedure described below in NCI-H358 cells is applicable to K-Ras G12C.
Note: This protocol may be executed substituting other cell lines to characterize inhibitors of other RAS variants, including, for example, AsPC-1 (K-Ras G12D), Capan-1 (K-Ras G12V), or NCI-H1355 (K-Ras G13C).
NCI-H358 cells were grown and maintained using media and procedures recommended by the ATCC. On the day prior to compound addition, cells were plated in 384-well cell culture plates (40 μl/well) and grown overnight in a 37° C., 5% CO2 incubator. Test compounds were prepared in 10, 3-fold dilutions in DMSO, with a high concentration of 10 mM. On the day of assay, 40 nL of test compound was added to each well of cell culture plate using an Echo550 liquid handler (LabCyte®). Concentrations of test compound were tested in duplicate. After compound addition, cells were incubated 4 hours at 37° C., 5% CO2. Following incubation, culture medium was removed and cells were washed once with phosphate buffered saline.
In some experiments, cellular pERK level was determined using the AlphaLISA SureFire Ultra p-ERK1/2 Assay Kit (PerkinElmer). Cells were lysed in 25 μL lysis buffer, with shaking at 600 RPM at room temperature. […] After a 2-hour incubation in the dark, 5 μL donor mix was added, plate was sealed, and incubated 2 hours at room temperature. Signal was read on an Envision plate reader (PerkinElmer) using standard AlphaLISA settings. Analysis of raw data was carried out in Excel (Microsoft) and Prism (GraphPad). Signal was plotted vs. the decadal logarithm of compound concentration, and IC50 was determined by fitting a 4-parameter sigmoidal concentration response model.
In other experiments, cellular pERK was determined by In-Cell Western. […] Fixed cells were washed 4 times for 5 minutes with TBS containing 0.1% Triton X-100 (TBST) and then blocked with 100 μL Odyssey blocking buffer (LI-COR) for 60 minutes at room temperature. Primary antibody (PERK, CST-4370, Cell Signaling Technology) was diluted 1:200 in blocking buffer, and 50 μL was added to each well and incubated overnight at 4° C. Cells were washed 4 times for 5 minutes with TBST. Secondary antibody (IR-800CW rabbit, LI-COR, diluted 1:800) and DNA stain DRAQ5 (LI-COR, diluted 1:2000) were added and incubated 1-2 hours at room temperature. Cells were washed 4 times for 5 minutes with TBST. Plates were scanned on a Li—COR Odyssey CLx Imager. Analysis of raw data was carried out in Excel (Microsoft) and Prism (GraphPad). Signal was plotted vs. the decadal logarithm of compound concentration, and IC50 was determined by fitting a 4-parameter sigmoidal concentration response model.

pEC50: −log10 of the molar value. Read-outs that look alike come from different tables or passages of the source.

Broadly, the pEC50 is the negative decadic logarithm of the EC50, by convention in mol/L. Turning to `CCn1c(-c2cccnc2[C@H](C)OC)c2c3cc(ccc31)-c1csc(n1)C[C@H](NC(=O)[C@H](C(C)C)N(C)C(=O)N1CCN(C(=O)C3(N(C)C)CC3)CC1)C(=O)N1CCC[C@H](N1)C(=O)OCC(C)(C)C2` [Compound A443], the pEC50 (NCI-H358 cells, 4 hours) was above 5.30. For `CCn1c(-c2cccnc2[C@H](C)OC)c2c3cc(ccc31)-c1csc(n1)C[C@H](NC(=O)[C@H](C(C)C)N(C)C(=O)N1CC(N)(C#N)C1)C(=O)N1CCC[C@H](N1)C(=O)OCC(C)(C)C2` [Compound A456], the pEC50 (NCI-H358 cells, 4 hours) was above 5.30.

In the case of `CCn1c(-c2cc(N3CCN(C)CC3)cnc2[C@H](C)OC)c2c3cc(ccc31)-c1csc(n1)C[C@H](NC(=O)[C@H](C(C)C)N(C)C(=O)N1CC(N(C)C)C1)C(=O)N1CCC[C@H](N1)C(=O)OCC(C)(C)C2` [Compound A477], the pEC50 (NCI-H358 cells, 4 hours) was above 5.30. As to `CCn1c(-c2cccnc2[C@H](C)OC)c2c3cc(ccc31)-c1csc(n1)C[C@H](NC(=O)[C@H](C(C)C)N(C)C(=O)N1CCCC13CCN(C)CC3)C(=O)N1CCC[C@H](N1)C(=O)OCC(C)(C)C2` [Compound A498], under “NCI-H358 cells, 4 hours”, the pEC50 is above 5.30. As for `CCn1c(-c2cccnc2[C@H](C)OC)c2c3cc(ccc31)-c1csc(n1)C[C@H](NC(=O)[C@H](C(C)C)N(C)C(=O)N1CC3(CN(C)CCO3)C1)C(=O)N1CCC[C@H](N1)C(=O)OCC(C)(C)C2` [Compound A499], the pEC50 (NCI-H358 cells, 4 hours) was above 5.30. In the case of `CCn1c(-c2cccnc2[C@H](C)OC)c2c3cc(ccc31)-c1csc(n1)C[C@H](NC(=O)[C@H](C(C)C)N(C)C(=O)N1CCC[C@H]1CN(C)C)C(=O)N1CCC[C@H](N1)C(=O)OCC(C)(C)C2` [Compound A519], the pEC50 (NCI-H358 cells, 4 hours) was above 5.30.

As for `CCn1c(-c2cccnc2[C@H](C)OC)c2c3cc(ccc31)-c1csc(n1)C[C@H](NC(=O)[C@H](C(C)C)N(C)C(=O)N1CCCC13CCOCC3)C(=O)N1CCC[C@H](N1)C(=O)OCC(C)(C)C2` [Compound A520], the pEC50 (NCI-H358 cells, 4 hours) is above 5.30.

Regarding `CCn1c(-c2cccnc2[C@H](C)OC)c2c3cc(ccc31)-c1csc(n1)C[C@H](NC(=O)[C@H](C(C)C)N(C)C(=O)N1CC3(CCCO3)C1)C(=O)N1CCC[C@H](N1)C(=O)OCC(C)(C)C2` [Compound A522], the pEC50 (NCI-H358 cells, 4 hours) is above 5.30. As to `CCn1c(-c2cc(N3CCN(C)CC3)cnc2[C@H](C)OC)c2c3cc(ccc31)-c1csc(n1)C[C@H](NC(=O)[C@H](C1CCCC1)N(C)C(=O)N(C)C)C(=O)N1CCC[C@H](N1)C(=O)OCC(C)(C)C2` [Compound A526], the pEC50 (NCI-H358 cells, 4 hours) was above 5.30.

Take `CCn1c(-c2cccnc2[C@H](C)OC)c2c3cc(ccc31)-c1csc(n1)C[C@H](NC(=O)[C@H](C(C)C)N(C)C(=O)N1CCCC13COC3)C(=O)N1CCC[C@H](N1)C(=O)OCC(C)(C)C2` [Compound A528]: the pEC50 (NCI-H358 cells, 4 hours) was above 5.30. Regarding `CCn1c(-c2cccnc2[C@H](C)OC)c2c3cc(ccc31)-c1csc(n1)C[C@H](NC(=O)[C@H](C(C)C)N(C)C(=O)N1CC3(CC(N(C)CCOC)C3)C1)C(=O)N1CCC[C@H](N1)C(=O)OCC(C)(C)C2` [Compound A532], the pEC50 (NCI-H358 cells, 4 hours) was above 5.30. On to `CCn1c(-c2cccnc2[C@H](C)OC)c2c3cc(ccc31)-c1csc(n1)C[C@H](NC(=O)[C@H](C(C)C)N(C)C(=O)N1CC([C@H](C)NC)C1)C(=O)N1CCC[C@H](N1)C(=O)OCC(C)(C)C2` [Compound A535], for which, for the setting “NCI-H358 cells, 4 hours”, the pEC50 is above 5.30.

Take `CCn1c(-c2cccnc2[C@H](C)OC)c2c3cc(ccc31)-c1cc(O)cc(c1)C[C@H](NC(=O)[C@H](C(C)C)N(C)C(=O)[C@@H]1OCC[C@@H]1c1cccnc1)C(=O)N1CCC[C@H](N1)C(=O)OCC(C)(C)C2` [Compound A546]: the pEC50 (NCI-H358 cells, 4 hours) was above 5.30.

Consider `CCn1c(-c2cccnc2[C@H](C)OC)c2c3cc(ccc31)-c1csc(n1)C[C@H](NC(=O)[C@H](C(C)C)N(C)C(=O)N1CC(S(=O)(=O)NC)C1)C(=O)N1CCC[C@H](N1)C(=O)OCC(C)(C)C2` [Compound A549], for which the pEC50 (NCI-H358, 4 h) was above 5.30. `CCn1c(-c2cc(N3CCN(C)CC3)cnc2[C@H](C)OC)c2c3cc(ccc31)-c1csc(n1)C[C@H](NC(=O)[C@H](C(C)C)N(C)C(=O)N1CCOCC1)C(=O)N1CCC[C@H](N1)C(=O)OCC(C)(C)C2` [Compound A555]: the pEC50 (NCI-H358 cells, 4 hours) was above 5.30. With `CCn1c(-c2cccnc2[C@H](C)OC)c2c3cc(ccc31)-c1csc(n1)C[C@H](NC(=O)[C@H](C(C)C)N(C)C(=O)N1CCC3(CCN(C)CC3)C1)C(=O)N1CCC[C@H](N1)C(=O)OCC(C)(C)C2` [Compound A565], under “NCI-H358 cells, 4 hours”, the pEC50 was above 5.30. The same measure, in the same setting: the same measure for `CCn1c(-c2cccnc2[C@H](C)OC)c2c3cc(ccc31)-c1csc(n1)C[C@H](NC(=O)[C@H](C(C)C)N(C)C(=O)N1C[C@H](N)[C@@H](F)C1)C(=O)N1CCC[C@H](N1)C(=O)OCC(C)(C)C2` [Compound A567]: above 5.30. Turning to `CCn1c(-c2cccnc2[C@H](C)OC)c2c3cc(ccc31)-c1csc(n1)C[C@H](NC(=O)[C@H](C(C)C)N(C)C(=O)N1CCOC[C@@H]1CN(C)C)C(=O)N1CCC[C@H](N1)C(=O)OCC(C)(C)C2` [Compound A572], the pEC50 (NCI-H358 cells, 4 hours) is above 5.30. For the molecule `CCn1c(-c2cccnc2[C@H](C)OC)c2c3cc(ccc31)-c1csc(n1)C[C@H](NC(=O)[C@H](C(C)C)N(C)C(=O)N1CCC[C@H](CN(C)C)C1)C(=O)N1CCC[C@H](N1)C(=O)OCC(C)(C)C2` [Compound A573], the pEC50 (NCI-H358 cells, 4 hours) is above 5.30. `CCn1c(-c2cccnc2[C@H](C)OC)c2c3cc(ccc31)-c1csc(n1)C[C@H](NC(=O)[C@H](CC1CC1)N(C)C(=O)N1CC(OC)C1)C(=O)N1CCC[C@H](N1)C(=O)OCC(C)(C)C2` [Compound A578]: the pEC50 (NCI-H358 cells, 4 hours) was above 5.30. On the same count and under the same terms, to `CCn1c(-c2cccnc2[C@H](C)OC)c2c3cc(ccc31)-c1csc(n1)C[C@H](NC(=O)[C@H](C(C)C)N(C)C(=O)N1CC(OC)C1)C(=O)N1CC[C@H](C)[C@H](N1)C(=O)OCC(C)(C)C2` [Compound A579, N-((2S)-1-(((6^3S,6^4S,4S,Z)-1^1-ethyl-1^2-(2-((S)-1-methoxyethyl)pyridin-3-yl)-6^4, 10, 10-trimethyl-5,7-dioxo-6^1,6^2,6^3,6^4,6^5,6^6-hexahydro-1^1H-8-oxa-2 (4,2)-thiazola-1 (5,3)-indola-6 (1,3)-pyridazinacycloundecaphane-4-yl)amino)-3-methyl-1-oxobutan-2-yl)-3-methoxy-N-methylazetidine-1-carboxamide] belongs above 5.30. On the same count and under the same terms, to `CCn1c(-c2cccnc2[C@H](C)OC)c2c3cc(ccc31)-c1csc(n1)C[C@H](NC(=O)[C@H](C(C)C)N(C)C(=O)N1C[C@H](OC)[C@@H](N)C1)C(=O)N1CCC[C@H](N1)C(=O)OCC(C)(C)C2` [Compound A580] belongs above 5.30; to `CCn1c(-c2cccnc2[C@H](C)OC)c2c3cc(ccc31)-c1csc(n1)C[C@H](NC(=O)[C@H](C(C)C)N(C)C(=O)N1CCOC[C@@H]1c1ccccc1)C(=O)N1CCC[C@H](N1)C(=O)OCC(C)(C)C2` [Compound A604], above 5.30; to `CCn1c(-c2cccnc2[C@H](C)OC)c2c3cc(ccc31)-c1csc(n1)C[C@H](NC(=O)[C@H](C(C)C)N(C)C(=O)N1[C@H](C)CN(C)C[C@H]1C)C(=O)N1CCC[C@H](N1)C(=O)OCC(C)(C)C2` [Compound A610], above 5.30.
